Source: PMC8136874, “The entry reaction of the plant shikimate pathway is subjected to highly complex metabolite-mediated regulation” (The Plant Cell, 2021)
Values belong to the compound of their own block, whether it stands above or below them.

How the values were obtained:
[1] = target: T1, AthDHS2 (Arabidopsis thaliana, UniProt Q00218); experiment: DHS enzymatic activity assay with recombinant AthDHS2; format: biochemical; settings: for effect on AthDHS2 activity (in words) / inhibition of AthDHS2 activity: 1 mM effector; for k cat / K m / V max: various concentrations of the substrate; for k cat: E4P values assume no substrate inhibition; for K m / V max: E4P values estimated from Lineweaver–Burk plots because of substrate inhibition
T1 construct: AthDHS2; residues 34–507; hexa-histidine; made in house; host or cells: E. coli Rosetta2 (DE3), pET28a

[2] = target: AthDHS3 (Arabidopsis thaliana, UniProt Q9SK84); experiment: DHS enzymatic activity assay with recombinant AthDHS3; format: biochemical; settings: for V max: various concentrations of the substrate, means ± SEM, n = 3
Method: (§1) Unless otherwise noted, DHS enzymatic activity was monitored as previously described ([Liu et al., 2008]), with several optimizations for high-throughput assays with eight-strip PCR tubes and a thermal cycler. The enzyme solution (7.7 µL) containing 50 mM HEPES (pH 7.4) was preincubated with an effector molecule(s) at room temperature for 10 min. For assays using recombinant protein and enzyme fraction isolated from plant leaves, 0.01–0.05 µg and approximately 50 µg of proteins were used, respectively. After adding 0.5 µL of 0.1 M DTT, the samples were further incubated at room temperature for 15 min. […] The enzyme reaction was started by adding 6.8 µL of the substrate solution, then incubated at 37°C for 20 min, and terminated by adding 30 µL of 0.6 M trichloroacetic acid. After brief centrifugation, 5 µL of 200 mM NaIO4 (sodium meta-periodate) in 9 N H3PO4 was added to oxidize the enzymatic product and incubate at 25°C for 20 min. To stop the oxidation reaction, 20 µL of 0.75 M NaAsO2 (sodium arsenite), which was dissolved in 0.5 M Na2SO4 and 0.05 M H2SO4, was immediately mixed. After 5 min of incubation at room temperature, one-third of the sample solution was transferred to a new tube to be mixed with 50 µL of 40 mM thiobarbituric acid and incubated at 99°C for 15 min in a thermal cycler. Developed pink chromophore was extracted by putting the final solutions with 600 µL of cyclohexanone in eight-strip solvent-resistant plastic tubes, mixing vigorously and centrifuging them at 4,500 × g for 3 min to separate water- and cyclohexanone-based layers. The absorbance of the pink supernatant was read at 549 nm with the microplate reader (Infinite 200 PRO, TECAN, Männedorf, Switzerland) to calculate DAHP production with the molar extinction coefficient at 549 nm (ε = 549 nm) of 4.5 × 10^4/M/cm. Reaction mixtures with boiled enzyme or without any substrates were run in parallel and used as negative controls to estimate the background signal for recombinant enzymes or enzymatic fraction from plant tissues, respectively.
(§2) For determination of kinetic parameters, the data of enzymatic activities measured in the presence of various concentration of substrates were calculated with the Michaelis–Menten equation in Graphpad Prism 6 (GraphPad Software, San Diego, CA, USA).

[3] = target: T2, AthDHS1 (Arabidopsis thaliana, UniProt P29976); experiment: DHS enzymatic activity assay with recombinant AthDHS1; format: biochemical; settings: for effect on AthDHS1 activity (in words): 1 mM effector; for K m / V max / k cat: various concentrations of the substrate, means ± SEM, n = 3
T2 construct: AthDHS1; residues 49–525; hexa-histidine; made in house; host or cells: E. coli Rosetta2 (DE3), pET28a
Method: as §1, §2

[4] = system: AthDHS1 and AthDHS2 mixtures; experiment: DHS assay using mixtures of AthDHS1 and AthDHS2 recombinant enzymes; format: biochemical, Arabidopsis thaliana; settings: 1 mM effector; molar ratios 0, 0.25, 0.5, 0.75, 1
Method: Next, we thought that the presence of non-inhibited DHS isoforms (e.g. AthDHS1) may affect the AAA sensitivity of AthDHS2, given that AthDHSs are known to function as tetrameric or dimeric forms ([Suzich et al., 1985]; [Pinto et al., 1986]; [Webby et al., 2005]). To test this, the recombinant enzymes of AAA non-inhibited AthDHS1 and AAA-inhibited AthDHS2 were mixed with different ratios (0, 0.25, 0.5, 0.75, and 1) and DHS activity assays were conducted with different inhibitors. Based on the kinetic parameters and the regulatory behaviors of individual AthDHSs, the expected level of DHS activity was first calculated and plotted (dotted lines in Figure 5, D, see the “Materials and methods” section). […] Similar results were obtained for the AthDHS2 and AthDHS3 mixture (Figure 5, E).
Unless otherwise noted, DHS enzymatic activity was monitored as previously described ([Liu et al., 2008]), with several optimizations for high-throughput assays with eight-strip PCR tubes and a thermal cycler. The enzyme solution (7.7 µL) containing 50 mM HEPES (pH 7.4) was preincubated with an effector molecule(s) at room temperature for 10 min. For assays using recombinant protein and enzyme fraction isolated from plant leaves, 0.01–0.05 µg and approximately 50 µg of proteins were used, respectively. After adding 0.5 µL of 0.1 M DTT, the samples were further incubated at room temperature for 15 min. […] The enzyme reaction was started by adding 6.8 µL of the substrate solution, then incubated at 37°C for 20 min, and terminated by adding 30 µL of 0.6 M trichloroacetic acid. After brief centrifugation, 5 µL of 200 mM NaIO4 (sodium meta-periodate) in 9 N H3PO4 was added to oxidize the enzymatic product and incubate at 25°C for 20 min. […] The absorbance of the pink supernatant was read at 549 nm with the microplate reader (Infinite 200 PRO, TECAN, Männedorf, Switzerland) to calculate DAHP production with the molar extinction coefficient at 549 nm (ε = 549 nm) of 4.5 × 10^4/M/cm. […]

[5] = system: root growth of Arabidopsis Col-0 and dhs mutants; experiment: Chemical feeding experiment, root length of 10-day-old seedlings; format: in vivo, Arabidopsis thaliana; settings: for effect of the added compound on Trp-mediated root growth inhibition of dhs3: media with 300 µM Trp; for effect of the added compound on Trp-mediated root growth inhibition of dhs3 / effect of the added compound on Tyr-mediated root growth inhibition of dhs1: AAAs added at 300 µM, shikimate at 500 µM; for effect of the added compound on Tyr-mediated root growth inhibition of dhs1: media with 300 µM Tyr
Method: Chemical feeding experiments were carried out as described previously ([de Oliveira et al., 2019]) with some modifications. Seedlings were grown on agar plates containing 0.5 MS with 1% sucrose, 0.8% agar, and 2.5 mM MES at pH 5.7 in the growth chamber where we grew other plants in soil. AAAs and/or shikimate were added to autoclaved media after cooling down to temperatures below 55°C. Plants were grown on the same plate side by side to minimize environmental effects, and multiple plates were prepared to obtain replications. Root lengths of 10-day-old seedlings were quantified by ImageJ.

[6] = system: shikimate accumulation in Col-0 and dhs mutants; experiment: Shikimate content with and without Tyr and/or glyphosate treatment; format: in vivo, Arabidopsis thaliana; settings: 250 µM glyphosate, 2 days; for increase of shikimate accumulation after treatment: plants grown with 300 µM Tyr
Method: Approximately 50–80 mg of fully expanded mature leaves were pooled from multiple plants at the same developmental stages and ground in 800 µL of extraction buffer (v/v 2:1 of methanol and chloroform with 2 µg/mL isovitexin [Millipore-Sigma], 100 µM norvaline [Thermo Fisher Scientific], and 1.25 µg/mL Tocol [Matreya LLC, State College, PA, USA] for internal standards for soluble metabolite analysis by LC–MS and GC–MS and tocopherol analysis by GC–MS, respectively), using 1600 MiniG Tissue Homogenizer (SPEX SamplePrep, Metuchen, USA) and 3-mm glass beads. After adding 600 µL of H2O and then 250 µL of chloroform, polar phase containing amino acids, and non‐polar phase containing tocopherols were separated by centrifugation, dried in new tubes. To detect Trp and AAA-derived metabolites, LC–MS analysis was carried out as previous described with some modification ([Alseekh et al., 2015]). The dried metabolites were resuspended in 70 µL of 80% LC–MS-grade methanol. Two microliters of the sample was injected onto a HSS T3 C18 reversed phase column (100 × 2.1 mm i.d., 1.8-μm particle size; Waters, Milford, CT, USA) and eluted using a 20-min gradient comprising 0.1% formic acid in LC–MS-grade water (solvent A) and 0.1% formic acid in LC–MS-grade acetonitrile (solvent B) at a flow rate of 0.4 mL/min and column temperature of 40°C. The binary linear gradient with following ratios of solvent B was used: 0–1 min, 1%; 1–13 min, 1%–35%; 13–14.5 min, 35%–70%; 14.5–15.5 min, 70%–99%, 15.5–17 min, 99%; 17–17.5 min, 99%–[…]; 17.5–20 min, 1%. The spectra were recorded using full scan mode of negative ion detection, covering a mass range from m/z 100 to 1,500. The resolution was set to 25,000 and the maximum scan time was set to 250 ms. The sheath gas was set to a value of 60, while the auxiliary gas was set to 35. The transfer capillary temperature was set to 150°C, while the heater temperature was adjusted to 300°C. The spray voltage was fixed at 3 kV, with a capillary voltage and a skimmer voltage of 25 and 15 V, respectively. Retention times, MS spectra, and associated peak intensities were extracted from the raw files using the Xcalibur software (Thermo Fisher Scientific). […] For anthocyanin quantification, the polar phase isolated for amino acid analysis was diluted 10 times with water in a new tube. […] Shikimate level was spectrometrically determined based on previous literatures ([Shaner et al., 2005]; [Sharkhuu et al., 2014]). […] After stopping the reaction by adding 100 µL of a termination solution containing 0.6 N sodium hydroxide and 0.22 M sodium sulfite, the absorption at 380 nm was immediately measured with the microplate reader. Shikimate concentration was determined by comparing with a dilution series of the shikimate standards.

Sequence of AthDHS3 (Q9SK84 entry or part of it): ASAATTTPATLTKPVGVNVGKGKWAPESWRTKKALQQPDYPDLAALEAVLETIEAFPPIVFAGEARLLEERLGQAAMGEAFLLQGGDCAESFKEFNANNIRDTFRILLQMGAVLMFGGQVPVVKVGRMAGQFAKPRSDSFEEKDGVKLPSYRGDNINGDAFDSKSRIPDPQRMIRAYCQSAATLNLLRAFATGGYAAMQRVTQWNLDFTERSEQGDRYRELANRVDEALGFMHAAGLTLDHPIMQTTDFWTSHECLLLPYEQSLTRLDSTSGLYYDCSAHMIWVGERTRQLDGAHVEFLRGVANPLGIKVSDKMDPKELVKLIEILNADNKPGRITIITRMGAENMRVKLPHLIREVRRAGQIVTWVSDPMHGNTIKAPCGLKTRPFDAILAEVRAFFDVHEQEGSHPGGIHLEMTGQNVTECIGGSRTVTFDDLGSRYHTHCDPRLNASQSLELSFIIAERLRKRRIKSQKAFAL
T1 sequence (Q00218 34-507): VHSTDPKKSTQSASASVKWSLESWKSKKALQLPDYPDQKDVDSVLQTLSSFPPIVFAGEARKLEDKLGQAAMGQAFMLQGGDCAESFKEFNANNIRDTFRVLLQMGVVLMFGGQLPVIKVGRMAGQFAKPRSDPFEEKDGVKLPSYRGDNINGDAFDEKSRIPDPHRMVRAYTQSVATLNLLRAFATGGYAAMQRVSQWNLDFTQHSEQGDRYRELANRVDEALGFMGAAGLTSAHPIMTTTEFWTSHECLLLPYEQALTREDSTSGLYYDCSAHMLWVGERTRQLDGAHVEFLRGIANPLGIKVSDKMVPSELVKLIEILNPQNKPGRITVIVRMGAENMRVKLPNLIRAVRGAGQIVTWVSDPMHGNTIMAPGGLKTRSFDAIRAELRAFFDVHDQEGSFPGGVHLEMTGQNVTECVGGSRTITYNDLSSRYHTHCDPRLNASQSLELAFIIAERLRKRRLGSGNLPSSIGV
T2 sequence (P29976 49-525): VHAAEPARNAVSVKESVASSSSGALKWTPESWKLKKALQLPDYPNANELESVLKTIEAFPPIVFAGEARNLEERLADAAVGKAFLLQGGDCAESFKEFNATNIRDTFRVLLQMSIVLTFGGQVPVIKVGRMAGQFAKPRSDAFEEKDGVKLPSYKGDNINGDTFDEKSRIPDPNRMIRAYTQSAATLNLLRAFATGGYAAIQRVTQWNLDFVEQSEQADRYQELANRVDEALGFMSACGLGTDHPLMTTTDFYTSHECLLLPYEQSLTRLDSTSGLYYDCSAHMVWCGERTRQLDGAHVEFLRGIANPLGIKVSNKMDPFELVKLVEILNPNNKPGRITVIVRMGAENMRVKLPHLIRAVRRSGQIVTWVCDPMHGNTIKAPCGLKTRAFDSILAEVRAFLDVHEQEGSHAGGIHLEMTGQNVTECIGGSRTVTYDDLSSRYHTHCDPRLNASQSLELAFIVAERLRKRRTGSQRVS

SMILES: O=C(/C=C/c1ccc(O)c(O)c1)OC1CC(C(=O)O)=CC(O)C1O (stereo not shown) [Caffeoyl shikimate]
effect on AthDHS2 activity (in words) [1]: fully inhibited
reduction of AthDHS3 activity ([2]; 1 mM effector): 70%
effect on AthDHS1 activity (in words) [3]: fully inhibited

substrate concentration beyond which AthDHS2 was inhibited ([1]; substrate inhibition): > 4 mM
k cat [1]: 11.8 ± 1.6 s⁻¹
K m [1]: 1755 ± 400 µM
V max [1]: 12.9 ± 1.8 nmol/µM/min
V max [2]: 9.92 ± 0.31 nmol/µM/min
K m [3]: 2842 ± 910 µM
V max [3]: 17.8 ± 0.59 nmol/µM/min
k cat [3]: 16.4 ± 0.54 s⁻¹
SMILES: O=C[C@H](O)[C@H](O)COP(=O)(O)O [E4P, D-erythrose 4-phosphate]

k cat [1]: 8.95 ± 0.44 s⁻¹
K m [1]: 360 ± 34 µM
V max [1]: 9.81 ± 0.48 nmol/µM/min
V max [2]: 9.15 ± 0.27 nmol/µM/min
K m [3]: 250 ± 53 µM
V max [3]: 15.3 ± 0.62 nmol/µM/min
k cat [3]: 14 ± 0.57 s⁻¹
SMILES: C=C(OP(=O)(O)O)C(=O)O [PEP, phosphoenolpyruvate]

SMILES: N[C@@H](Cc1ccccc1)C(=O)O [Phe, L-phenylalanine]
concentration beyond which AthDHS2 activity is slightly activated ([1]; 1 µM to at least 5 mM tested): > 5 mM
effect on AthDHS2 activity (in words) [1]: did not significantly affect
observed DHS activity of the enzyme mixtures versus theoretically calculated activity [4]: matched with the theoretical plot
effect on AthDHS3 activity (in words) ([2]; 1 mM effector): did not significantly affect
effect on AthDHS1 activity (in words) [3]: did not significantly affect
IC50 ([5]; Arabidopsis thaliana, read-out: IC50 of root growth suppression): ~550 µM
concentration that suppressed root growth ([5]; all dhs mutants, similarly to Col-0): > 300 µM
effect of the added compound on Trp-mediated root growth inhibition of dhs3 [5]: not recovered
effect of the added compound on Tyr-mediated root growth inhibition of dhs1 [5]: not sufficient

effect on AthDHS1 activity (in words) [3]: did not affect
SMILES: N[C@@H](CC(=O)O)C(=O)O [aspartate]

SMILES: O=C(O)/C=C/c1ccccc1 [cinnamate]
effect on AthDHS2 activity (in words) [1]: no effects
effect on AthDHS3 activity (in words) ([2]; 1 mM effector): no effects
effect on AthDHS1 activity (in words) [3]: no effects

SMILES: COc1cc(/C=C/C(=O)O)ccc1O [ferulate]
effect on AthDHS2 activity (in words) [1]: no effects
effect on AthDHS3 activity (in words) ([2]; 1 mM effector): no effects
effect on AthDHS1 activity (in words) [3]: no effects

SMILES: O=C(O)CNCP(=O)(O)O [glyphosate]
increase of shikimate accumulation after treatment ([6]; dhs2): five-fold
increase of shikimate accumulation after treatment ([6]; other genotypes): two–three-fold
effect on shikimate levels ([6]; without Tyr, similar between genotypes): increased shikimate levels

SMILES: O=C(O)/C=C/c1ccc(O)cc1 [p-coumarate]
effect on AthDHS2 activity (in words) [1]: no effects
effect on AthDHS3 activity (in words) ([2]; 1 mM effector): no effects
effect on AthDHS1 activity (in words) [3]: no effects

inhibition of AthDHS2 activity [1]: ~25%
effect on AthDHS3 activity (in words) ([2]; 1 mM effector): did not significantly affect
effect on AthDHS1 activity (in words) [3]: did not significantly affect
SMILES: O=C(O)C(=O)CC1(C(=O)O)C=CC(O)C=C1 (stereo not shown) [prephenate]

SMILES: O=C(O)C1=C[C@@H](O)[C@@H](O)[C@H](O)C1 [shikimate]
inhibition of AthDHS2 activity [1]: approximately 30%
effect on AthDHS3 activity (in words) ([2]; 1 mM effector): did not significantly affect
effect on AthDHS1 activity (in words) [3]: did not significantly affect
sensitivity of root growth ([5]; dhs mutants, up to 1000 µM): none of the dhs mutants showed sensitivity
effect of the added compound on Trp-mediated root growth inhibition of dhs3 [5]: no effect
effect of the added compound on Tyr-mediated root growth inhibition of dhs1 [5]: no effect

SMILES: COc1cc(/C=C/C(=O)O)cc(OC)c1O [sinapate]
effect on AthDHS2 activity (in words) [1]: no effects
effect on AthDHS3 activity (in words) ([2]; 1 mM effector): no effects
effect on AthDHS1 activity (in words) [3]: no effects
